Measurements published in ChEMBL document CHEMBL1201862, “PubChem BioAssay data set” (2004).
Calls of active or inactive are those of the source.

How the values were obtained:
[1] = P. falciparum 3D7-ScDHODH growth inhibitors, dose response, SYBR Green, dry powder samples (AID 1159570); format: functional, cell-based;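 also: parasite growth measured after 72 hours of compound exposure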
[2] = HepG2 cell cytotoxicity, dose response, cytotoxicity control, plate reader, dry powder samples (AID 1159569); format: functional, cell-based;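 also: inhibitor potency with signal falling toward the positive control level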
[3] = P. falciparum Dd2 growth inhibitors, dose response, SYBR Green, cherry-picked samples (AID 1159567); format: functional, cell-based
[4] = P. falciparum Dd2 growth inhibitors, dose response, SYBR Green, dry powder samples (AID 1159566); format: functional, cell-based;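 also: potency for growth inhibition with lower SYBR green DNA signal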
[5] = HepG2 cell cytotoxicity, dose response, cytotoxicity control, cherry-picked samples (AID 1159577); format: functional, cell-based
[6] = P. falciparum ATP4 D1247Y mutant growth inhibitors, dose response, NITD609-resistant line, SYBR Green, dry powder (AID 1159571); format: functional, cell-based;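 also: parasites synchronized at ring stage by sorbitol before testing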
[7] = molecular target: Induced myeloid leukemia cell differentiation protein Mcl-1 (Homo sapiens, UniProt Q07820); format: functional
[8] = molecular target: Nonstructural protein 1 (Influenza A virus, UniProt Q194T2); format: functional, Influenza A virus (A/California/07/2009(H1N1))
[9] = molecular target: T1, RNA-editing ligase 1, mitochondrial (Trypanosoma brucei brucei, UniProt P86926); experiment: TbREL1 ligase inhibitors, dose response, biochemical, fluorescence, Trypanosoma brucei (AID 1117295); format: functional
T1 sequence (P86926 whole entry): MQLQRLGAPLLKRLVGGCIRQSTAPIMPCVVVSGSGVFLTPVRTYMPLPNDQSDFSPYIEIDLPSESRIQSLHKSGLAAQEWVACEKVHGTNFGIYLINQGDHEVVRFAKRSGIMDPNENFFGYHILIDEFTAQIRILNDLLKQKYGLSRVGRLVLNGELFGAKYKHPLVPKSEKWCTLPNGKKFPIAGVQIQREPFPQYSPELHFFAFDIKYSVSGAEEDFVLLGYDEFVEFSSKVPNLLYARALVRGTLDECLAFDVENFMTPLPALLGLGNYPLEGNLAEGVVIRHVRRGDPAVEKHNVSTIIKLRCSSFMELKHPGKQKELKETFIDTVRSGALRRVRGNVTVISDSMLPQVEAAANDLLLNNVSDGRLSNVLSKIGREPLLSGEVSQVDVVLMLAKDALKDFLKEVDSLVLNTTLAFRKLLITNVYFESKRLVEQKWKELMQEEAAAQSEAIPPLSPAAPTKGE

[10] = molecular target: Peroxisome proliferator-activated receptor gamma/Nuclear receptor corepressor 2 (Homo sapiens, UniProt P37231+Q9Y618); experiment: Counterscreen for NR2E3 inverse agonists: TR-FRET-based biochemical high throughput dose response assay to identify inverse agonists of the interaction between peroxisome proliferator-activated receptor gamma (PPARg) and nuclear receptor co-repressor 2 (NCOR2).; format: functional
[11] = molecular target: Photoreceptor-specific nuclear receptor (Homo sapiens, UniProt Q9Y5X4); experiment: NR2E3 inverse agonists, dose response, biochemical, TR-FRET (AID 463256); format: functional
[12] = T. cruzi growth inhibition in host cells, dose response, cell-based, plate reader, dry powder, set 2 (AID 652275); format: functional
[13] = molecular target: T2, DNA repair protein RAD52 homolog (Homo sapiens, UniProt P43351); format: functional, biochemical
T2 sequence (P43351 whole entry): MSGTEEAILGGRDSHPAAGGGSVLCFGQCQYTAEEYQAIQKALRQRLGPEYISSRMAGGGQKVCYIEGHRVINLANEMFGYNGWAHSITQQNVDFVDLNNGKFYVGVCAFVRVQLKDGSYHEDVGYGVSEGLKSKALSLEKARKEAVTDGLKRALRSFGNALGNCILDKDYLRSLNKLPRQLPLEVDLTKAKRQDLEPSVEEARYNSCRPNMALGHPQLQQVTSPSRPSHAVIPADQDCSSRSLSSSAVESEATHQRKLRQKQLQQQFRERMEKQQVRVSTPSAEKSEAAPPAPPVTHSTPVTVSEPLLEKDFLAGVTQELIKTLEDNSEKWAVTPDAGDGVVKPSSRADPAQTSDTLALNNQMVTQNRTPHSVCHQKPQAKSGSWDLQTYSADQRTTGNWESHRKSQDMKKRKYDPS

[14] = molecular target: Disintegrin and metalloproteinase domain-containing protein 17 (Homo sapiens, UniProt P78536); experiment: exosite inhibitors of ADAM17, dose response, biochemical (AID 743260)
[15] = ADAM10 protease inhibitors, dose response, selectivity assay for ADAM17 exosite inhibitor project, biochemical, FRET peptide substrate, recombinant human ADAM10 (AID 743259);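 also: ADAM10 enzyme cleaving a FRET peptide substrate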
[16] = molecular target: Paired box protein Pax-8 (Homo sapiens, UniProt Q06710); experiment: inhibitors of PAX8-driven TPO luciferase reporter, dose response, RMG-I cells, cherry-pick (AID 687027); format: functional, cell-based;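 also: luciferase reporter driven by Pax8 target thyroperoxidase promoter measured by SteadyGlo luminescence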
[17] = NIH:OVCAR-3 ovarian cancer cell cytotoxicity, dose response, PAX8 inhibitor project, plate reader, dry powder samples (AID 743044); format: functional, cell-based
[18] = molecular target: NAD-dependent protein deacylase sirtuin-5, mitochondrial (Homo sapiens, UniProt Q9NXA8); experiment: SIRT5 desuccinylase inhibitors, dose response, biochemical, fluorescence imaging, cherry-pick, set 5 (AID 720591);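 also: desuccinylation of succinyl peptide AMC substrate read as fluorescence after trypsin release; potency of inhibitors that lower fluorescence and may act on trypsin instead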
[19] = inhibitors of PGC1a acetylation in cells, dose response, cell-based, cherry-picked samples (AID 720514); format: functional;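 also: potency may reflect raised or lowered acetylation signal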
[20] = molecular target: Major prion protein (Homo sapiens, UniProt P04156); format: functional, cell-based
[21] = cells
[22] = IGROV1 ovarian cancer cell cytotoxicity, dose response, PAX8 inhibitor project, plate reader, dry powder samples (AID 743043); format: functional, cell-based; conditions: IGROV-1
[23] = cytotoxicity in OVCAR8 ovarian cancer cells, dose response, PAX8 project, cell-based, plate reader, dry powder samples (AID 743197); format: functional; conditions: OVCAR-8
[24] = molecular target: Peroxisome proliferator-activated receptor gamma/Nuclear receptor coactivator 3 (Homo sapiens, UniProt P37231); experiment: TR-FRET dose response biochemical High Throughput Screening assay for agonists of the steroid receptor coactivator 3 (SRC-3) recruitment by the peroxisome proliferator-activated receptor gamma (PPAR gamma): non-selective agonists. [Related pubchem assays: 1301 (Confirmation screen.), 1048 (Primary screen.)]; format: functional
[25] = molecular target: Peroxisome proliferator-activated receptor gamma/Nuclear receptor coactivator 2 (Homo sapiens, UniProt P37231); experiment: TR-FRET dose response biochemical High Throughput Screening assay for agonists of the steroid receptor coactivator 2 (SRC-2) recruitment by the peroxisome proliferator-activated receptor gamma (PPAR gamma): non-selective agonists. [Related pubchem assays: 1297, 1032 ]; format: functional
[26] = molecular target: Albumin (Bos taurus, UniProt P02769); experiment: Counterscreen for inhibitors of T-cell receptor (TCR)-CD3 interaction: Fluorescence-based biochemical high throughput dose response assay to identify inhibitors of T-cell receptor (TCR)-CD3 interaction using a TAMRA-labeled BSA probe.; format: functional
[27] = molecular target: Kallikrein-7 (Homo sapiens, UniProt P49862); experiment: Fluorescence Intensity-based biochemical primary high throughput dose response assay to identify activators of kallikrein-7 (K7) zymogen.
[28] = inhibitors of firefly luciferase expression or activity, dose response, H4 neuroglioma cells, luminescence (AID 1990); format: functional, cell-based
[29] = Luminescence Cell-Based Dose Response HTS to Identify Inhibitors of 5'UTR Stem-Loop Driven Prion Protein mRNA Translation in H4 Neuroglioblastoma Cells. [Related pubchem assays: 1827 (Project Summary), 1813 (Primary HTS)]; format: functional
[30] = inhibitors of SNCA 5'UTR-driven reporter translation, confirmation, H4 neuroglioma cells, luminescence (AID 1988); format: functional, cell-based

Paired box protein Pax-8, sequence (Q06710 whole entry): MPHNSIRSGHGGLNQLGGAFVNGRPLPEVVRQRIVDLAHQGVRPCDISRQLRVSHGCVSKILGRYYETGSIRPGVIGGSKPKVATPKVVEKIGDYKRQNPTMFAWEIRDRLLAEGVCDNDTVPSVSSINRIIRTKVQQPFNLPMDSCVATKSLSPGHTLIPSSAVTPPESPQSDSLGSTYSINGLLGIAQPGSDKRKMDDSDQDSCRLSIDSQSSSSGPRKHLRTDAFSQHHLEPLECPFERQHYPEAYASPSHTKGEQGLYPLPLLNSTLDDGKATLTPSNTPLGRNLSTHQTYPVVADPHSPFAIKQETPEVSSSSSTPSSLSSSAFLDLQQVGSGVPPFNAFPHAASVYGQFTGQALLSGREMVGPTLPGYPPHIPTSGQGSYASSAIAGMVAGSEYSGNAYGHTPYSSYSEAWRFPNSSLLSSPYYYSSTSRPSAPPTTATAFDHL
Peroxisome proliferator-activated receptor gamma/Nuclear receptor corepressor 2, sequence (P37231 whole entry): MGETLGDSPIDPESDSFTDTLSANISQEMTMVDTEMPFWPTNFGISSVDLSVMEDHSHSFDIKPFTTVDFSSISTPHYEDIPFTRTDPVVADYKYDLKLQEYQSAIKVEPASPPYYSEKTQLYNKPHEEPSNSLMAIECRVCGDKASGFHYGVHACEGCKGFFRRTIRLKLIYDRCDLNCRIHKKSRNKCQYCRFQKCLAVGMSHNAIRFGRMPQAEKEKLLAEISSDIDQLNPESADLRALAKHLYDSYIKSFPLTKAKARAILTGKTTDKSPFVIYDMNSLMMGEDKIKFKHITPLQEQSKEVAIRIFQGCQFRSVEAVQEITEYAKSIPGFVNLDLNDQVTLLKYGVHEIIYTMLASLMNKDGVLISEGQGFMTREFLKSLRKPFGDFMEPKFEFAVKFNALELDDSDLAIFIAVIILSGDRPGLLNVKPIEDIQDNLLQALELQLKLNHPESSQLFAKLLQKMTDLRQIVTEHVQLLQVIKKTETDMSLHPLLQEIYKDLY
Peroxisome proliferator-activated receptor gamma/Nuclear receptor corepressor 2, sequence (Q9Y618 whole entry): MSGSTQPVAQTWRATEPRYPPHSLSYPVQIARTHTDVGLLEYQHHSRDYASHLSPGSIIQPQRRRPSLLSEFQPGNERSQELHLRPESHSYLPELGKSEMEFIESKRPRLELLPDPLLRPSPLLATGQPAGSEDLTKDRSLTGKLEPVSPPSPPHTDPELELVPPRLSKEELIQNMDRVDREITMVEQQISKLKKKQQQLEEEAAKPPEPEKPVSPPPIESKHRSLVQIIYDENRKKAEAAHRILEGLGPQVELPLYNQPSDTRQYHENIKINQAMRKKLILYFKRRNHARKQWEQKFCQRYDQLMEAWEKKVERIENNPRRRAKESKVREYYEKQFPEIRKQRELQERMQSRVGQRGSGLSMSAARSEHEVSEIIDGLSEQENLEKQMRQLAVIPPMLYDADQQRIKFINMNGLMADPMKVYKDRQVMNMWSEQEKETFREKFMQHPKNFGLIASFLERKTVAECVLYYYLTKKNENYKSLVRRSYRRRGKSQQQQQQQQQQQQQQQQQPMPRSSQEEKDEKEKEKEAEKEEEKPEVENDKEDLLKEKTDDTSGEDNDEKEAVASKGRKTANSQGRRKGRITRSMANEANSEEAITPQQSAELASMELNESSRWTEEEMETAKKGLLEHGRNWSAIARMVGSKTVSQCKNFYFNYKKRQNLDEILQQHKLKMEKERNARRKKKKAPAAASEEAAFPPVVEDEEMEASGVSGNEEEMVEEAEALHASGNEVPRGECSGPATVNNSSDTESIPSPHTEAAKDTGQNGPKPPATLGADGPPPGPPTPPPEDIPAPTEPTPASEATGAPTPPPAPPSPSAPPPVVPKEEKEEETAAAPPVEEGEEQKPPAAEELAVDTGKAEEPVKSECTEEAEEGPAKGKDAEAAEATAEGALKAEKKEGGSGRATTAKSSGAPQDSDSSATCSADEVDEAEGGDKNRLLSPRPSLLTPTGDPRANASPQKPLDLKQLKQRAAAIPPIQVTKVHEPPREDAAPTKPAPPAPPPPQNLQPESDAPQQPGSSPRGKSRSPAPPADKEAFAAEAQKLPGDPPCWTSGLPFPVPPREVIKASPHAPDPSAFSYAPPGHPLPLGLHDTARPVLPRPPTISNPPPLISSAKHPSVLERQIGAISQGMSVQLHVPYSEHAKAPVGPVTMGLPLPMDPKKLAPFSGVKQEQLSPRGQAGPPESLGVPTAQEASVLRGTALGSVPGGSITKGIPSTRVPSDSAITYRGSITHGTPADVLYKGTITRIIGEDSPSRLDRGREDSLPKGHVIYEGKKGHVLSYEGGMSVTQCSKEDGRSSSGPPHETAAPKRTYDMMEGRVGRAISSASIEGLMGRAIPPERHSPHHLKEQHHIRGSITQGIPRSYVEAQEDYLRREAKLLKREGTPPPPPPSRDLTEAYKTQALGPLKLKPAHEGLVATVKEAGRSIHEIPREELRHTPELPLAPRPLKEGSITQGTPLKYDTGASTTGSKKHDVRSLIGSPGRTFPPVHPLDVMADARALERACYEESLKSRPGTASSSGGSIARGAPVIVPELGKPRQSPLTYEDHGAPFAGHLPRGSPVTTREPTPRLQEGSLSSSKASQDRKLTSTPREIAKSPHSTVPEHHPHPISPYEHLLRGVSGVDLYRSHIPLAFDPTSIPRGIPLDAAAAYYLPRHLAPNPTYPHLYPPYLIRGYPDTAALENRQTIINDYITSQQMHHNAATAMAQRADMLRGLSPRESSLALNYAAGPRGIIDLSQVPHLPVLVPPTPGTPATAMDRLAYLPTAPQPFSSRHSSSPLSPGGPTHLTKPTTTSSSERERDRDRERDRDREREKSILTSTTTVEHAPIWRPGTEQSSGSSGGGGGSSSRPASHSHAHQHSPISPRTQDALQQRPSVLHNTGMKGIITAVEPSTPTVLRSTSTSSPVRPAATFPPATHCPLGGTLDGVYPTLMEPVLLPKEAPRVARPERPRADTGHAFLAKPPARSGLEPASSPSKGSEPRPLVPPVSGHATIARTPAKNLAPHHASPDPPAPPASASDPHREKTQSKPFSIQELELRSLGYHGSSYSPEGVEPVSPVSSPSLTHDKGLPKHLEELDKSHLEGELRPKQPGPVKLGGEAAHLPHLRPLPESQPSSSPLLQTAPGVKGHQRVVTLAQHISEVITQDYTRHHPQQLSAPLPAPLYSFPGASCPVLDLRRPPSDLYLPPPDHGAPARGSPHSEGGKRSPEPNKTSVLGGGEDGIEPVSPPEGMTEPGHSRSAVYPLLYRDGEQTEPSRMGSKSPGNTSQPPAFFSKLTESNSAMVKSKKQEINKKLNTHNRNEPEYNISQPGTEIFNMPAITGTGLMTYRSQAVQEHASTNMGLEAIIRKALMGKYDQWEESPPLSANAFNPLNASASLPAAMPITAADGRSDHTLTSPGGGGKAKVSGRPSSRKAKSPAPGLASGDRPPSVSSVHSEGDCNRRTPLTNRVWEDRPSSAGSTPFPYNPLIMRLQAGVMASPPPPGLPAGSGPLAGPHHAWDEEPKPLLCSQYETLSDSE
Photoreceptor-specific nuclear receptor, sequence (Q9Y5X4 whole entry): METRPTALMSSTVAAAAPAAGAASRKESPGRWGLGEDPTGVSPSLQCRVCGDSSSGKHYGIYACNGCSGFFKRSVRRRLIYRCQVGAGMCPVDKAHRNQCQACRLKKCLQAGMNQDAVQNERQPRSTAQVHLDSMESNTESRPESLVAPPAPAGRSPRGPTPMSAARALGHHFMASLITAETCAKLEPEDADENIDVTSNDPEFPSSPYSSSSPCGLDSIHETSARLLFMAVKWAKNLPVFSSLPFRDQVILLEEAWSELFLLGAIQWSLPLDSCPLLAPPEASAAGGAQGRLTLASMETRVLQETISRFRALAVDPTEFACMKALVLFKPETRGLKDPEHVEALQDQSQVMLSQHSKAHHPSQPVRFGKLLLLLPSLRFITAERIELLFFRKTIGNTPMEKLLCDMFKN
Disintegrin and metalloproteinase domain-containing protein 17, sequence (P78536 whole entry, the tested form may be a part): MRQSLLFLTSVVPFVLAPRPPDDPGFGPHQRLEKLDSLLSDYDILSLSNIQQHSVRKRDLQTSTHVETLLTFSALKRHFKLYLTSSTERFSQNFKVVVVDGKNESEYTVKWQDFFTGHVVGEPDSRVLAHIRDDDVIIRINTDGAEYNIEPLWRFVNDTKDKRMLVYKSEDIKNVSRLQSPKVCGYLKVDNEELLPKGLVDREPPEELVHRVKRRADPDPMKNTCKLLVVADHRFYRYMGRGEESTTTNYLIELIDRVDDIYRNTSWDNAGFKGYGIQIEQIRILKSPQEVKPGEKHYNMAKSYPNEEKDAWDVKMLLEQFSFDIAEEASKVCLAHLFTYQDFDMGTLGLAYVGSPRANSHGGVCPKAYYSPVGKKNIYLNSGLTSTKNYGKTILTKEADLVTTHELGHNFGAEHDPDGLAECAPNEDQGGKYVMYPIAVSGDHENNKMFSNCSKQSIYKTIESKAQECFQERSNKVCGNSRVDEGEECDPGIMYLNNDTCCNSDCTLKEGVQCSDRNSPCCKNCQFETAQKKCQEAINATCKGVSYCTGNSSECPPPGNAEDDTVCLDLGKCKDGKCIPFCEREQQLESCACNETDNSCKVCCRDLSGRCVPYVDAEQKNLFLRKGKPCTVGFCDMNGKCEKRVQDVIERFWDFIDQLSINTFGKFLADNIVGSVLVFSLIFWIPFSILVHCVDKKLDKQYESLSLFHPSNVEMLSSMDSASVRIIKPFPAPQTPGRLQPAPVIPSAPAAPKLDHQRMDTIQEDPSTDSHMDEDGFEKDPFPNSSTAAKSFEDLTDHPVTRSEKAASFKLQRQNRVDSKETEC
NAD-dependent protein deacylase sirtuin-5, mitochondrial, sequence (Q9NXA8 whole entry): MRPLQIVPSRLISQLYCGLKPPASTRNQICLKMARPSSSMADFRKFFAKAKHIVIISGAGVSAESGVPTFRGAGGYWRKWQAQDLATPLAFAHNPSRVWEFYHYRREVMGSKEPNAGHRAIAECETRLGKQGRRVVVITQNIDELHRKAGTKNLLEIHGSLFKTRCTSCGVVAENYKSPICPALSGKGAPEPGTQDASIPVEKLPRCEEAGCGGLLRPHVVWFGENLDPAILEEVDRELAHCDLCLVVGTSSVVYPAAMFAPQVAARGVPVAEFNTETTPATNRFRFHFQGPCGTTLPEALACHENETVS

CCCc1cn(CC[C@@H]2CC[C@@H](NS(=O)(=O)c3ccc(-c4ccccc4)cc3)[C@H](CO)O2)nn1
AC50 [1]: 2.17 µM (active)
AC50 [2]: 37.5 µM (active)
AC50 [3]: 1.7 µM (active)
AC50 [4]: 1.99 µM (active)
AC50 [5]: 23.3 µM (active)
AC50 [6]: 1.82 µM (active)

Cc1n[nH]c(=S)n(NC(=O)/C=C/C(=O)Nn2c(=S)[nH]nc(C)c2=O)c1=O
IC50 [7]: 4.67 µM (active)
IC50 [8]: 7.29 µM (active)
IC50 [9]: 63.6 µM (inactive)

O=C(CN1C(=O)NC2(CCCc3ccccc32)C1=O)NCC(F)(F)F (stereo not given)
IC50 [10]: 7.85 µM (active)
IC50 [11]: 8.55 µM (active)

CC(C)N1C[C@@H](CN(C)Cc2ccc(Cl)cc2)Oc2c(C(=O)Nc3ccnnc3)cccc2C1=O
AC50 [12]: 0.299 µM (active)

COCCN1CCn2c(nc3cc(Nc4nnc(C)c5ccccc45)ccc32)C1
AC50 [13]: 11.9 µM (active)

COc1ccc(OC)c(NC(=O)COC(=O)Cc2ccc(-c3ccccc3)cc2)c1
IC50 [14]: > 69.5 µM (inactive)
IC50 [15]: > 69.5 µM (inactive)

COc1cccc(-c2cc(C(=O)Nc3cc(C)on3)no2)c1
IC50 [10]: > 39.8 µM (not active)
IC50 [11]: > 39.8 µM (not active)

C[C@@H]1CN([C@H](C)CO)C(=O)c2cc(NC(=O)Nc3ccc(F)cc3)ccc2O[C@@H](C)CCCCO[C@H]1CN(C)C(=O)NC1CCCCC1
AC50 [16]: 6.55 µM (active)
AC50 [17]: 43.1 µM (active)

O=C(Oc1ccc(Oc2ccccc2)cc1)N1CCC(O)CC1
AC50 [18]: > 30 µM (inactive)

NCCCC[C@H]1CN=C(S)N1CCCCC1CCCCC1
AC50 [13]: 10.9 µM (active)

CC1CCCN(CC(=O)N2CCCc3ccccc32)C1.[O-][Cl+3]([O-])([O-])O (stereo not given)
AC50 [19]: 27.1 µM (active)

CC(C)N1CC2(CN(Cc3ccc(F)c(F)c3)C2)Oc2c(NC(=O)c3ccncc3)cccc2C1=O
AC50 [12]: 1.05 µM (active)

CC(C)OC(=O)CSc1nc(Cc2ccccc2)nc2ccccc12
IC50 [20]: 4.45 µM (active)
IC50 [21]: > 138 µM (inactive)

CCN(CC)CCNC(=O)C(=O)NCC1OCCN1S(=O)(=O)c1cccs1 (stereo not given)
AC50 [13]: 29.3 µM (active)

Cc1ccc(CN2C(=O)[C@H]3Cc4c([nH]c5ccccc45)C(C)(C)N3C2=O)cc1
IC50 [14]: > 69.5 µM (inactive)
IC50 [15]: > 69.5 µM (inactive)

C[C@@H]1CCCCO[C@H](CN(C)Cc2ccc(C(F)(F)F)cc2)[C@@H](C)CN([C@@H](C)CO)C(=O)c2cc(NS(=O)(=O)c3ccc(F)cc3)ccc2O1
AC50 [16]: 8.57 µM (active)
AC50 [17]: 21.5 µM (active)
AC50 [22]: 31 µM (active)
AC50 [23]: 29.7 µM (active)

C(=C\c1ccc([C@H]2[C@@H]3CN(Cc4cccnc4)C[C@H]2N3)cc1)/c1ccccc1
AC50 [1]: 4.3 µM (active)
AC50 [2]: 18.6 µM (active)
AC50 [3]: 2.81 µM (active)
AC50 [4]: 3.79 µM (active)
AC50 [5]: 27.5 µM (active)
AC50 [6]: 3.95 µM (active)

Cc1cc(NC(=O)CSc2nnc3ccc(-c4ccccc4)nn23)no1
AC50 [18]: > 30 µM (inactive)

Cc1cccc(NC(=O)N2CCCC(CNC(=O)c3ccccc3Cl)C2)c1C (stereo not given)
AC50 [18]: > 30 µM (inactive)

COC(=O)C1=C(C)N(Cc2cccc(C(F)(F)F)c2)C(NCc2ccccc2C(F)(F)F)=NC1c1cccc(F)c1 (stereo not given)
IC50 [9]: > 96.6 µM (inactive)

N#CC1=C2SCN(Cc3ccccc3)CN2C(=O)CC1c1cccs1 (stereo not given)
EC50 [24]: > 79.4 µM (not active)
EC50 [25]: > 79.4 µM (not active)
IC50 [20]: > 138 µM (inactive)
IC50 [21]: > 138 µM (inactive)

O=C(CSc1nc2ccccc2c(=O)n1-c1ccc(F)c(Cl)c1)Nc1cccc(S(=O)(=O)N2CCOCC2)c1
IC50 [26]: > 94.2 µM (inactive)

CCC(=O)N1CC[C@@H]2[C@H]1c1cc(Br)ccc1N(C)[C@@H]2CO
AC50 [12]: 11.7 µM (active)

COC(=O)C1=C(C)N(Cc2ccc(C(F)(F)F)cc2)C(NCc2ccccc2C(F)(F)F)=NC1c1ccc(Cl)cc1 (stereo not given)
IC50 [9]: > 96.6 µM (inactive)

Cc1cc(C)c2c(n1)nn1c(NCCN3CCOCC3)cc(C)nc21
EC50 [27]: 34.8 µM (inactive)

OC[C@@H]1CC[C@@H]2O[C@H](CCc3ccc(C#CCc4ccccc4)cc3)[C@H](n3cc(-c4ccccc4)nn3)C[C@@H]2O1
AC50 [1]: 1.79 µM (active)
AC50 [2]: > 100 µM (inactive)
AC50 [3]: 1.45 µM (active)
AC50 [4]: 0.879 µM (active)
AC50 [6]: 1.53 µM (active)

Cc1csc(NC(=O)COc2ccc3c(C)cc(=O)oc3c2)n1
IC50 [10]: > 39.8 µM (not active)
IC50 [11]: 7.06 µM (active)

CCOC(=O)c1c(-c2ccccc2)csc1NC(=O)CSc1nncs1
EC50 [28]: 15.8 µM (active)
EC50 [29]: > 120 µM (not active)
EC50 [30]: 30.6 µM (active)
IC50 [14]: > 69.5 µM (inactive)
IC50 [15]: > 69.5 µM (inactive)

COc1ccc(C2C3=C(O)CC(C)(C)CC3=NC(C)=C2C(=O)N2CCOCC2)c(OC)c1 (stereo not given)
EC50 [27]: 52.4 µM (inactive)

C[C@H]1CCCCO[C@H](CN(C)Cc2ccc(C(F)(F)F)cc2)[C@@H](C)CN([C@@H](C)CO)C(=O)c2cc(NS(=O)(=O)c3ccc(Cl)cc3)ccc2O1
AC50 [16]: 4.73 µM (active)
AC50 [22]: 36 µM (active)
AC50 [23]: > 70 µM (inactive)
